Test results reported in article PMC4058678 (The Biochemical journal, 2009).
Read-outs that look alike come from different tables or passages of the source.

How the values were obtained:
myeloperoxidase (MPO) [1] = molecular target: T1, myeloperoxidase (MPO) (Homo sapiens, UniProt P05164); assay: HOCl production by isolated MPO-H2O2-Cl− system; format: biochemical
myeloperoxidase (MPO) [2] = molecular target: T1, myeloperoxidase (MPO); assay: HOCl production by isolated MPO-H2O2-Cl− system; format: biochemical; remark: listed apart in the source

T1 sequence (P05164 165-273): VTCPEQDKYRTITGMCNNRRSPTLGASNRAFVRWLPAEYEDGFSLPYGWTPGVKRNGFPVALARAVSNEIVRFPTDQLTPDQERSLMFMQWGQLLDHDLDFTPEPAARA
T1 sequence (P05164 279-745): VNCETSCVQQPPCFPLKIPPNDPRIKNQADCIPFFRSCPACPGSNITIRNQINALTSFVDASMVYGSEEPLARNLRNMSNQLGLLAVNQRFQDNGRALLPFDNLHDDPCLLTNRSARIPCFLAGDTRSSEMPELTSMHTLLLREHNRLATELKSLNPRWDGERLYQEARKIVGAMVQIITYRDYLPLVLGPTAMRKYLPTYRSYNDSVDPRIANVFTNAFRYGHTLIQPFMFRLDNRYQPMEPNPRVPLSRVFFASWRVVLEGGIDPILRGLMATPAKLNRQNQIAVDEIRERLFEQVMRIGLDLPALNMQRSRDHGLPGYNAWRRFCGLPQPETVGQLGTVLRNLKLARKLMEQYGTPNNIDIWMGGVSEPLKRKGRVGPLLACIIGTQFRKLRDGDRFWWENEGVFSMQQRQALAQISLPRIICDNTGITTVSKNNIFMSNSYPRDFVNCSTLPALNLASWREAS

CC1(C)CC(N)C(C)(C)N1[O] (centres unmarked) [3-AminoPROXYL, 3-amino-2,2,5,5-tetramethylpyrrolidin-1-yloxyl]
IC50 (myeloperoxidase (MPO) [1]): 2.7 µM

CC1(C)CC(N)CC(C)(C)N1[O] [4-AminoTEMPO, 4-amino-2,2,6,6-tetramethylpiperidin-1-yloxyl]
IC50 (myeloperoxidase (MPO) [2]): 1.2 µM
